Reference: patent US20230028441A1, “NOVEL HETEROARYL-TRIAZOLE COMPOUNDS AS PESTICIDES” (Bayer Aktiengesellschaft, priority 2019, published 2023)

Assays:
Format in all cases: in vivo
[1] = tested on: larvae of the southern green stink bug (Nezara viridula); experiment: Nezara viridula spray test; conditions: in Hordeum vulgare, 96 h
Outline: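 Percent mortality of southern green stink bug larvae read 4 days after spraying infested Hordeum vulgare. Test solutions: compound in acetone plus dimethylformamide, diluted with emulsifier-containing water (1000 ppm alkylarylpolyglycol ether).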

[2] = tested on: cattle tick larvae (Rhipicephalus microplus), strain Parkhurst, resistant against synthetic pyrethroids; experiment: Rhipicephalus (Boophilus) microplus in-vitro contact test, larval cattle tick; conditions: 5 μg/cm^2 (=500 g/ha), after 48 hours, read-out: efficacy (larvae dead or moribund)
Outline: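 Efficacy, 100% meaning all larvae dead or moribund, was judged at 48 h from loss of negative geotactic climbing. Larvae of the Parkhurst strain, 20–50 per tube, were exposed at 27° C and 85% humidity to acetone-coated tube surfaces; 900 ppm corresponded to 5 μg/cm^2.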

[3] = tested on: adult engorged female ticks (Rhipicephalus microplus); experiment: Rhipicephalus (Boophilus) microplus injection test; conditions: 168 h, egg deposition after 7 days, read-out: efficacy (infertile eggs); for pest or weed control at 0.004 mg: 4 μg/animal; for pest or weed control at 0.02 mg: 20 μg/animal
Outline: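 Efficacy is the share of infertile eggs: 100% means none are fertile, 0% means all are fertile. Egg deposition was checked 7 days after injecting 1 μL of DMSO-diluted compound into the abdomen of five engorged female R. microplus, with doubtful eggs kept about 42 days to hatching. The stock was 10 mg in 0.5 mL DMSO.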

[4] = tested on: green peach aphid (Myzus persicae); experiment: Myzus persicae oral test; conditions: 120 h
Experimental: Solvent: 100 parts by weight acetone
To produce a suitable preparation of active compound, 1 part by weight of active compound is mixed with the stated amount of solvent, and the concentrate is diluted with water to the desired concentration.
50 μL compound solution is filled in microtiter plates and 150 μL IPL41 insect medium (33%+15% sugar) is added to obtain a total volume of 200 μL per well. Afterwards the plates are sealed with parafilm through which a mixed population of the green peach aphid (Myzus persicae) can suck on the compound preparation.
After 5 days mortality in % is determined. 100% means all aphids have been killed and 0% means none of the aphids have been killed.

[5] = tested on: fall armyworm larvae (Spodoptera frugiperda); experiment: Spodoptera frugiperda spray test (maize leaf sections); conditions: 168 h
Outline: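 Percent kill of Spodoptera frugiperda larvae was recorded 7 days after infesting dried, treated maize leaf sections. Spray solutions were made from an acetone/DMF compound preparation diluted with 1000 ppm emulsifier-containing water.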

[6] = tested on: adult cat fleas (Ctenocephalides felis); experiment: Ctenocephalides felis in-vitro contact test, adult cat flea; conditions: 5 μg/cm^2 (=500 g/ha), after 48 hours, read-out: efficacy (fleas dead or moribund)
Experimental: (§1) 9 mg compound is solved in 1 mL acetone and diluted with acetone to the desired concentration. 250 μL of the test solution is filled in 25 mL glass test tubes and homogeneously distributed on the inner walls by rotation and tilting on a shaking device (2 h at 30 rpm). With a compound concentration of 900 ppm, an inner surface of 44.7 cm^2 and a homogeneous distribution, a dose of 5 μg/cm^2 is achieved.
(§2) After the solvent has evaporated, each test tube is filled with 5-10 adult cat fleas (Ctenocephalides felis), closed with a perforated lid and incubated in a lying position at room temperature and relative humidity. After 48 hours efficacy is determined. The fleas are patted on the ground of the tubes and are incubated on a heating plate at 45-50° C. for at most 5 minutes. Immotile or uncoordinated moving fleas, which are not able to escape the heat by climbing upwards, are marked as dead or moribund.
An efficacy of 100% means all fleas are dead or moribund; 0% means no fleas are dead or moribund.

[7] = tested on: larvae of the banded cucumber beetle (Diabrotica balteata); experiment: Diabrotica balteata spray test; conditions: 168 h, after 7 days, wheat seeds, read-out: efficacy (seedlings grown up); for pest or weed control at 32 µg/disc, 100 g/ha: 100 g/ha (=32 μg/well)
Outline: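 Efficacy (%) read at day 7: 100% means seedlings grew like untreated, uninfested controls; 0% means no seedlings grew. Wheat seeds germinated 1 day on agar, sprayed with emulsified compound solution (1000 ppm emulsifier in water), then each well infested with 10-20 larvae.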

[8] = tested on: adult unfed cat fleas (Ctenocephalides felis); experiment: Ctenocephalides felis oral test; conditions: 48 h, 100 ppm in cattle blood, after 2 days
Outline: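 Percent flea mortality recorded at 2 days. Compound was dissolved in dimethyl sulfoxide and diluted into cattle blood, which ~20 unfed adult cat fleas ingested through parafilm from a 37°C-heated chamber, their own chamber kept at room temperature.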

[9] = tested on: adult brown dog ticks (Rhipicephalus sanguineus); experiment: Rhipicephalus sanguineus in-vitro contact test with adult brown dog ticks; conditions: after 48 hours, read-out: efficacy (ticks dead or moribund); for pest or weed control at 1 µg/cm2, 100 g/ha: 1 μg/cm^2 (=100 g/ha); for pest or weed control at 5 µg/cm2, 500 g/ha: 5 μg/cm^2 (=500 g/ha)
Experimental: as §1
as §2, with “brown dog ticks (Rhipicephalus sanguineus),” for “cat fleas (Ctenocephalides felis),”, “ticks” for “fleas”, “ticks,” for “fleas,”
An efficacy of 100% means all ticks are dead or moribund; 0% means no ticks are dead or moribund.

Row | Compound | mortality at 100 g/ha [1] | mortality at 500 g/ha [1] | pest or weed control at 5 µg/cm2 [2] | pest or weed control at 0.004 mg [3] | pest or weed control at 0.02 mg [3] | mortality at 4 ppm [4] | mortality at 500 g/ha [5] | pest or weed control at 5 µg/cm2 [6] | pest or weed control at 32 µg/disc, 100 g/ha [7] | pest or weed control at 160 µg/disc, 500 g/ha ([7]; 500 g/ha (=160 μg/well)) | mortality at 100 g/ha [5] | mortality at 100 ppm [8] | pest or weed control at 1 µg/cm2, 100 g/ha [9] | pest or weed control at 5 µg/cm2, 500 g/ha [9]
1 | CSc1nc(C(C)NC(=O)c2cc(Cl)cc(S(C)(=O)=O)c2)n(-c2ccc(Cl)cn2)n1 (racemic) [I-059, 3-chloro-N-[1-[2-(5-chloro-2-pyridyl)-5-methylsulfanyl-1,2,4-triazol-3-yl]ethyl]-5-methylsulfonyl-benzamide] | 100% | 100% | 100% | 100% | 100% | 100% | 100% | 80% | 100% | 100% | – | – | – | –
2 | CC(NC(=O)c1cc(Cl)cc(C(F)(F)F)c1)c1nc(C#N)nn1-c1ccc(Cl)cn1 (racemic) [I-071, 3-chloro-N-[1-[2-(5-chloro-2-pyridyl)-5-cyano-1,2,4-triazol-3-yl]ethyl]-5-(trifluoromethyl)benzamide] | – | – | 90% | 100% | 100% | – | – | 80% | – | – | – | – | – | –
3 | CC(NC(=O)c1cc(Br)cc(Br)c1)c1nc(N)nn1-c1ccc(C(=O)N2CCOCC2)cn1 (racemic) [I-107, N-[1-[5-amino-2-[5-(morpholine-4-carbonyl)-2-pyridyl]-1,2,4-triazol-3-yl]ethyl]-3,5-dibromo-benzamide] | – | – | – | – | – | 90% | – | 90% | – | – | – | – | – | –
4 | CC(NC(=O)c1cc(Cl)cc(C(F)(F)F)c1)c1nc(NC(=O)C2(Cl)CC2)nn1-c1ncccn1 (stereo not shown) [I-022] | – | – | 90% | 100% | – | 100% | – | 100% | – | – | 100% | 100% | 100% | 100%
5 | CC(NC(=O)c1cc(Cl)cc(C(F)(F)F)c1)c1nc(C(N)=O)nn1-c1ccc(C#N)cn1 (stereo not shown) [I-075] | – | – | 100% | 100% | – | – | – | 90% | 100% | – | – | 100% | – | –
6 | CC(NC(=O)c1cc(Br)cc(C(F)(F)F)c1)c1nc(N(C)C(=O)OC(C)(C)C)nn1-c1ncccn1 (stereo not shown) [I-089] | – | – | – | 100% | – | 100% | – | 90% | 100% | – | 100% | 100% | – | –
7 | CC(=O)N(C)c1nc(C(C)NC(=O)c2cc(C(F)(F)F)cc(C(F)(F)F)c2)n(-c2ncccn2)n1 (stereo not shown) [I-091] | – | – | – | 100% | – | 100% | – | 100% | 100% | – | 100% | 100% | – | –
8 | CNc1nc(C(C)NC(=O)c2cc(Br)cc(Br)c2)n(-c2ncccn2)n1 (stereo not shown) [I-100] | – | – | 100% | 100% | – | 100% | – | 100% | 100% | – | 100% | 100% | 100% | 100%
9 | CC(NC(=O)c1cc(Br)cc(C2(C(F)(F)F)CC2)c1)c1nc(N)nn1-c1ncccn1 (stereo not shown) [I-112] | – | – | 100% | – | – | – | – | 90% | – | – | – | – | – | –
